Test results as given in publication PMC12156997, “Dihydromyricetin May Attenuate Skin Aging as a RAGE Inhibitor” (Nutrients, 2025).

Experiments:
[1] = molecular target: T1, RAGE (receptor for advanced glycation end products) (Homo sapiens, UniProt Q15109); experiment: SPR (Biacore 1S+, CM5 chip, RAGE immobilized, multi-cycle kinetics); type: binding
T1 construct: gene AGER

[2] = molecular target: T1, RAGE (receptor for advanced glycation end products); experiment: SPR (Biacore 1S+, CM5 chip, RAGE immobilized, multi-cycle kinetics); known RAGE inhibitor as reference; type: binding

T1 sequence (Q15109 23-344): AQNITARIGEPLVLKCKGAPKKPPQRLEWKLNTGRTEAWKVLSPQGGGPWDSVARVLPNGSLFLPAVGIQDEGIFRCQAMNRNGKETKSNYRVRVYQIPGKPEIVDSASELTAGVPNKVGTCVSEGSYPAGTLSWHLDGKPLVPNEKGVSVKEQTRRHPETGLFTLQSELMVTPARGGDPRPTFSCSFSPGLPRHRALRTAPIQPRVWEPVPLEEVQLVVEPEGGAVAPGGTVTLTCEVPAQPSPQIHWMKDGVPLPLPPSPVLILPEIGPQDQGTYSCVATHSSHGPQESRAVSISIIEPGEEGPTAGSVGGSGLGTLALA

O=C1c2c(O)cc(O)cc2O[C@H](c2cc(O)c(O)c(O)c2)[C@H]1O [DHM, Dihydromyricetin]
Kd [1]: 28.7 µM

O=C(c1ccc(Cl)cc1)N(Cc1ccccc1)C1CCCCC1 [FPS-ZM1]
Kd [2]: 40.7 µM
